Laboratory results taken from patent publication US9630841B2, “Method for producing an aqueous stable chlorine dioxide solution” (A.P.F. AQUA SYSTEM AG, priority 2010, dated 2017).

What was measured:
[1] = Saturation limit of chlorine dioxide in water; assay type: physicochemical; settings: 5° C. and normal pressure
Excerpt: With the method according to the invention, chlorine dioxide solutions can be produced in any desired and/or suitable concentration. Preferably, aqueous solutions of up to about 2 wt %, preferably about 1 wt % of chlorine dioxide are produced with the method according to the invention. Chlorine dioxide solutions with higher concentrations are more difficult to obtain because of the limited solubility of chlorine dioxide in water, but they can nevertheless be realized. When using higher concentrations of chlorite for the production of the chlorine dioxide solutions according to the invention, in particular when using chlorite concentrations in the range of the saturation solubility of the corresponding chlorite salt, aqueous chlorine dioxide solutions with a concentration of up to about 4.5 wt % can be produced. The value of about 4.5 wt % represents the saturation limit of chlorine dioxide in water determined experimentally at 5° C. and normal pressure. With higher pressure, even free chlorine dioxide phases can be generated in water. […] This means that the solubility of chlorine dioxide is higher, the less foreign matter there is in the solution. […]

[2] = aqueous solution, 20° C.; cited from earlier work

## [O][Cl+][O-] [chlorine dioxide]
[1]
  saturation limit of chlorine dioxide in water: about 4.5 wt %

## O=S(=O)([O-])OOS(=O)(=O)[O-].[Na+].[Na+] [sodium peroxodisulfate]
[2]
  saturation concentration: about 54.5 wt %
